The nature of this data set: recombinant UMI read abundance after kanamycin selection (control-corrected) (log10(CPM+1)); higher = more efficient recombination; extreme values may be limits of the assay; sequences stand for … in AGTGCAGAGAAAATCGGCCAGTTTTCTCTGCCTGCAGTCCGCATGCCGTGGGACCCCTTGGGTTCTAACCTGTTGCCTAGATTTATGCAGCGGACTGCCTTTCTCCCAAAGTGATAAACCGG…AGGTTGGTTTCACT; site = the 11-nt donor. The gist of the method: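 Values are reported as log10(CPM+1), obtained by converting sequencing counts to CPM, averaging replicates and scaling by control-derived factors. The counts came from recombinant UMIs amplified by PCR across the donor–target junction. These UMIs came from a pooled Escherichia coli screen of donor and donor-binding-loop pairs for the IS621 bridge recombinase, plated with IPTG (0.07 mM) plus kanamycin or left unselected, in two replicates each.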
As for “CCGCACACATGGACCGGTTTTCCCGGTAATCCGTATTTGGT (site CCGCACACTAC)”, the “recombinant UMI read abundance (log10)” value came out at 0.509.
With “CCGCACACATGGACCGGTTTTCCCGGTAATCCGTATTTGTA (site CCACACACTTA)” the figure was 0.587; with “CCGCACACATGGACCGGTTTTCCCGGTAATCCGTATTTGTA (site CCCCACACTTA)”, 0.0105.
The result for “CCGCACACATGGACCGGTTTTCCCGGTAATCCGTATTTGTA (site CCGCACACTTA)” reads 0.895; that for “CCGCACACATGGACCGGTTTTCCCGGTAATCCGTATTTGTA (site CCTCACACTTA)”, 0.00457.
With “CCGCATGCATGGACCGGTTTTCCCGGTAATCCGTATTTGCT (site CCGCATGCTAG)” the figure was 0.291.
As for “CCGCATTCATGGACCGGTTTTCCCGGTAATCCGTATTTGCG (site CCGCATTCTCG)”, the “recombinant UMI read abundance (log10)” value is 0.57.
The result for “CCGCCAGCATGGACCGGTTTTCCCGGTAATCCGTATTTGGG (site CCGCCAGCTCC)” reads 0.
With “CCGCCTCCATGGACCGGTTTTCCCGGTAATCCGTATTTGGC (site CCGCCTCCTGC)” the figure was 0; with “CCGCGCACATGGACCGGTTTTCCCGGTAATCCGTATTTGTA (site CCGCGCACTTA)”, 0.0144; with “CCGCGCACATGGACCGGTTTTCCCGGTAATCCGTATTTGTT (site CCGCGCACTAA)”, 0.0199.
With “CCGCGTACATGGACCGGTTTTCCCGGTAATCCGTATTTGTT (site CCGCGTACTAA)” the figure was 0.0381.
In the case of “CCGGAAACATGGACCGGTTTTCCCGGTAATCCGTATTTGCA (site CAGGAAACTTG)”, the “recombinant UMI read abundance (log10)” value was found to be 0.
With “CCGGAAACATGGACCGGTTTTCCCGGTAATCCGTATTTGCA (site CCGGAAACTTG)” the figure was 0.135; with “CCGGAAACATGGACCGGTTTTCCCGGTAATCCGTATTTGCA (site CGGGAAACTTG)”, 0.
With “CCGGAAACATGGACCGGTTTTCCCGGTAATCCGTATTTGCA (site CTGGAAACTTG)” the figure was 0.
With “CCGGAGTCATGGACCGGTTTTCCCGGTAATCCGTATTTGCC (site CAGGAGTCTGG)” the figure was 0; with “CCGGAGTCATGGACCGGTTTTCCCGGTAATCCGTATTTGCC (site CCGGAGTCTGG)”, 1.55; with “CCGGAGTCATGGACCGGTTTTCCCGGTAATCCGTATTTGCC (site CGGGAGTCTGG)”, 0.
As for “CCGGAGTCATGGACCGGTTTTCCCGGTAATCCGTATTTGCC (site CTGGAGTCTGG)”, the “recombinant UMI read abundance (log10)” value came out at 0.
As for “CCGGCAGCATGGACCGGTTTTCCCGGTAATCCGTATTTGCA (site CCGGCAGCTTG)”, the “recombinant UMI read abundance (log10)” value is 0.255.
With “CCGGCAGCATGGACCGGTTTTCCCGGTAATCCGTATTTGTA (site CCGGCAGCTTA)” the figure was 0.665.
With “CCGGTACCATGGACCGGTTTTCCCGGTAATCCGTATTTGAG (site CCGGTACCTCT)” the figure was 0; with “CCGGTAGCATGGACCGGTTTTCCCGGTAATCCGTATTTGTG (site CCGATAGCTCA)”, 0.
In the case of “CCGGTAGCATGGACCGGTTTTCCCGGTAATCCGTATTTGTG (site CCGCTAGCTCA)”, the “recombinant UMI read abundance (log10)” value is 0.0271.
With “CCGGTAGCATGGACCGGTTTTCCCGGTAATCCGTATTTGTG (site CCGGTAGCTCA)” the figure was 0.303; with “CCGGTAGCATGGACCGGTTTTCCCGGTAATCCGTATTTGTG (site CCGTTAGCTCA)”, 0.0101.
With “CCGGTCCCATGGACCGGTTTTCCCGGTAATCCGTATTTGTC (site CCGGTCCCTGA)” the figure was 0.
With “CCGGTTACATGGACCGGTTTTCCCGGTAATCCGTATTTGCT (site CCGATTACTAG)”, the “recombinant UMI read abundance (log10)” value amounted to 0.782.
Consider “CCGGTTACATGGACCGGTTTTCCCGGTAATCCGTATTTGCT (site CCGCTTACTAG)”, for which the “recombinant UMI read abundance (log10)” value was 0.
With “CCGGTTACATGGACCGGTTTTCCCGGTAATCCGTATTTGCT (site CCGGTTACTAG)” the figure was 0; with “CCGGTTACATGGACCGGTTTTCCCGGTAATCCGTATTTGCT (site CCGTTTACTAG)”, 0.
The result for “CCGTAAGCATGGACCGGTTTTCCCGGTAATCCGTATTTGTG (site CCGTAAGCTCA)” reads 0.404; that for “CCGTAAGCATGGACCGGTTTTCCCGGTAATCCGTATTTGTG (site CCGTCAGCTCA)”, 0.0145; that for “CCGTAAGCATGGACCGGTTTTCCCGGTAATCCGTATTTGTG (site CCGTGAGCTCA)”, 0.011.
With “CCGTAAGCATGGACCGGTTTTCCCGGTAATCCGTATTTGTG (site CCGTTAGCTCA)” the figure was 0.0113.
“CCGTAGTCATGGACCGGTTTTCCCGGTAATCCGTATTTGGG (site CCGTAGTCTCC)”: the “recombinant UMI read abundance (log10)” value was found to be 0.0263.
With “CCGTCTACATGGACCGGTTTTCCCGGTAATCCGTATTTGCT (site CCGTATACTAG)” the figure was 0; with “CCGTCTACATGGACCGGTTTTCCCGGTAATCCGTATTTGCT (site CCGTCTACTAG)”, 0.223; with “CCGTCTACATGGACCGGTTTTCCCGGTAATCCGTATTTGCT (site CCGTGTACTAG)”, 0.
Regarding “CCGTCTACATGGACCGGTTTTCCCGGTAATCCGTATTTGCT (site CCGTTTACTAG)”, the “recombinant UMI read abundance (log10)” value turned out to be 0.
For “CCGTTACCATGGACCGGTTTTCCCGGTAATCCGTATTTGTG (site CCGTTAACTCA)”, the “recombinant UMI read abundance (log10)” value worked out at 0.00404.
In the case of “CCGTTACCATGGACCGGTTTTCCCGGTAATCCGTATTTGTG (site CCGTTACCTCA)”, the “recombinant UMI read abundance (log10)” value is 0.0136.
Regarding “CCGTTACCATGGACCGGTTTTCCCGGTAATCCGTATTTGTG (site CCGTTAGCTCA)”, the “recombinant UMI read abundance (log10)” value was 0.0116.
With “CCGTTACCATGGACCGGTTTTCCCGGTAATCCGTATTTGTG (site CCGTTATCTCA)” the figure was 0.
The result for “CCGTTAGCATGGACCGGTTTTCCCGGTAATCCGTATTTGCG (site CCGTTAGCTCA)” reads 0; that for “CCGTTAGCATGGACCGGTTTTCCCGGTAATCCGTATTTGCG (site CCGTTAGCTCC)”, 0; that for “CCGTTAGCATGGACCGGTTTTCCCGGTAATCCGTATTTGCG (site CCGTTAGCTCG)”, 0.184.
As to “CCGTTAGCATGGACCGGTTTTCCCGGTAATCCGTATTTGCG (site CCGTTAGCTCT)”, the “recombinant UMI read abundance (log10)” value was determined as 0.0063.
In the case of “CCGTTCACATGGACCGGTTTTCCCGGTAATCCGTATTTGCT (site CCGTTAACTAG)”, the “recombinant UMI read abundance (log10)” value is 0.
With “CCGTTCACATGGACCGGTTTTCCCGGTAATCCGTATTTGCT (site CCGTTCACTAG)” the figure was 0.726; with “CCGTTCACATGGACCGGTTTTCCCGGTAATCCGTATTTGCT (site CCGTTGACTAG)”, 0; with “CCGTTCACATGGACCGGTTTTCCCGGTAATCCGTATTTGCT (site CCGTTTACTAG)”, 0.
With “CCGTTTACATGGACCGGTTTTCCCGGTAATCCGTATTTGCA (site CCGTTTACTAG)”, the “recombinant UMI read abundance (log10)” value came out at 0.
As to “CCGTTTACATGGACCGGTTTTCCCGGTAATCCGTATTTGCA (site CCGTTTACTCG)”, the “recombinant UMI read abundance (log10)” value came to 0.
With “CCGTTTACATGGACCGGTTTTCCCGGTAATCCGTATTTGCA (site CCGTTTACTGG)”, the “recombinant UMI read abundance (log10)” value was 0.
The result for “CCGTTTACATGGACCGGTTTTCCCGGTAATCCGTATTTGCA (site CCGTTTACTTG)” reads 0; that for “CCGTTTACATGGACCGGTTTTCCCGGTAATCCGTATTTGCG (site CCGTTTACTAG)”, 0; that for “CCGTTTACATGGACCGGTTTTCCCGGTAATCCGTATTTGCG (site CCGTTTACTCG)”, 0.0437.
With “CCGTTTACATGGACCGGTTTTCCCGGTAATCCGTATTTGCG (site CCGTTTACTGG)” the figure was 0; with “CCGTTTACATGGACCGGTTTTCCCGGTAATCCGTATTTGCG (site CCGTTTACTTG)”, 0.
With “CCGTTTGCATGGACCGGTTTTCCCGGTAATCCGTATTTGTG (site CCGTTAGCTCA)” the figure was 0.00545; with “CCGTTTGCATGGACCGGTTTTCCCGGTAATCCGTATTTGTG (site CCGTTCGCTCA)”, 0.0182.
In the case of “CCGTTTGCATGGACCGGTTTTCCCGGTAATCCGTATTTGTG (site CCGTTGGCTCA)”, the “recombinant UMI read abundance (log10)” value was 0.0153.
The result for “CCGTTTGCATGGACCGGTTTTCCCGGTAATCCGTATTTGTG (site CCGTTTGCTCA)” reads 0; that for “CCTAAAGCATGGACCGGTTTTCCCGGTAATCCGTATTTGAG (site CCTAAAGCTAT)”, 0.
The result for “CCTAAAGCATGGACCGGTTTTCCCGGTAATCCGTATTTGAG (site CCTAAAGCTCT)” reads 0.599; that for “CCTAAAGCATGGACCGGTTTTCCCGGTAATCCGTATTTGAG (site CCTAAAGCTGT)”, 0.

The record behind these values is the supplement of paper PMC11208160.
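Note: IS621 bridge recombinase in Escherichia coli cells against a fixed T5 target plasmid.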
